Earlier results as cited in publication PMC6721965 (Biochimica et biophysica acta. Biomembranes, 2019).

Tested on: bacteria
Settings: classification of parent peptides used for hybrid design; ref [4]-[8]

Sequence	Primary cellular localization pattern
ARDNKKTRIWPRHLQLAVRN [DesHDAP1]	membrane translocation
GIGKWLHSAKKFGKAFVGEIMNS [magainin 2]	membrane localization/permeabilization
KGRGKQGGKVRWKAKTRSS [parasin]	membrane localization/permeabilization
TRSSRAGLQWPVGRVHRLLRK [buforin II (BF2), buforin II]	membrane translocation
